Here are results for two molecules from ChEMBL document CHEMBL1133998, “Studies directed towards the refinement of the pancratistatin cytotoxic pharmacophore” (2001).

Common to all, as to assay type: functional
The test system of one assay is P388. The assay is described as follows: Effective dose against the p-388 mouse leukemia cell line. Conditions: read-out: ED50 (the source's name).
Another assay has as its system CCRF-CEM. The assay is described as follows: Effective dose for inhibition of proliferation of the leukemia cell line CCRF-CEM. Conditions: Homo sapiens, read-out: ED50 (the source's name).
The next assay has as its system HL-60. The assay is described as follows: Effective dose for inhibition of proliferation of the leukemia cell line HL-60(TB). Conditions: Homo sapiens, read-out: ED50 (the source's name).
The next assay concerns NCI-H226. The assay is described as follows: Effective dose for inhibition of proliferation of the lung cancer cell line NCI-H226. Conditions: Homo sapiens, read-out: ED50 (the source's name).

In brackets after ≈: the same amount, converted by molar mass.

`O=C1N[C@H]2[C@H](O)CCC[C@@H]2c2cc3c(cc21)OCO3`: the EC50 with P388 came out at 40.1 µg/mL (≈ 153 µM).

Regarding `O=C1N[C@H]2C[C@H](O)[C@@H](O)C[C@@H]2c2cc3c(cc21)OCO3`, the EC50 stood at 0.55 µg/mL (≈ 1.98 µM) in the assay on CCRF-CEM, 0.89 µg/mL (≈ 3.21 µM) in the assay with HL-60, 0.65 µg/mL (≈ 2.34 µM) with NCI-H226 and 0.45 µg/mL (≈ 1.62 µM) in the assay with P388.
